From US20070265212A1, “Drug Transport and Delivery System” (LUZERN ACQUISITION CORP., C/O STRELA DEVELOPMENT, priority 2002, published 2007)

Key:
[1] = tested on: red blood cells; assay: Metabolite formation in the presence of red blood cells (HPLC, mass spectrometry); format: in vitro ADME; details: identified by HPLC and mass spectrometry
Experimental: (§1) These metabolites were identified by HPLC and mass spectrometry to be m-L-Sarcolysin, prolyl-m-L-sarcolysin, fluoro-phenylalanine and prolyl-m-sarcolysyl-p-fluoro-phenylalanin.
(§2) According to hitherto is available results this metabolite is most probably ADM linked to one Phe moiety. This was done with 1 ml of blood containing 20 μg/ml of the ADM derivative as well as 5×10^9 RBC compared to only 5×10^6 melanoma cells.

[2] = tested on: human melanoma cells; assay: Metabolite formation in the presence of human melanoma cells (HPLC, mass spectrometry); format: in vitro ADME; details: identified by HPLC and mass spectrometry
Experimental: as §1, §2

## Prolyl-m-sarcolysyl-p-fluoro-phenylalanin [PSF]
[1]
  metabolites in presence of red blood cells: one major metabolite, namely m-L-sarcolysin
[2]
  metabolites in the presence of cancer cells: 4
